pIC50: −log10 of the molar value.
Assays:
[1] = system: abnormal stereotyped behaviour; assay: abnormal stereotyped behaviour, high intensity stereotypy (side effect profile); assay type: in vivo, rat; details: rats
Description: Backward locomotion may occasionally be observed.

[2] = system: haloperidol-induced catalepsy; assay: catalepsy test for antiparkinsonian effects (antagonism of haloperidol-induced catalepsy); assay type: in vivo; details: Rattus norvegicus; rats, test substance perorally 1 h before haloperidol 0.25 mg/kg subcutaneously; read-out: Minimum effective dose (peroral administration)
Description: The principle behind the haloperidol catalepsy test relates to the fact that the drug haloperidol (Serenase®) induces a receptor blockade of post synaptic dopamine receptors within the dopamine innervated corpus striatum of the rat brain. Following the blockade of active dopamine neurotransmission of the striatum a state of rigid immobility is induced, during which the rat can be placed in various totally abnormal immobile postures involving the forelegs and the whole body. […] The immobile posture effect induced by haloperidol closely resembles the state of Parkinson's disease in humans, which is due to a deficit of the dopaminergic innervation of the striatal complex (nucleus caudatus, putamen).
The day before testing, the rats weighing 200-250 g are housed 2 and 2 together in standard macrolon cages. […] The testing for the immobile catalepsy syndrome includes 4 tests performed in the following consecutive order: • 1) a vertical wire netting (40x40 cm high).The meshes (openings) of the nettings are approximately 1×2cm. • 2) a horizontal bar 9 cm above the floor • 3) a 9 cm high block (bar) • 4) a 3 cm high block (cork)
The rats were scored for the immobile cataleptic syndrome every 15 min in all 4 tests starting 15 min after the haloperidol injection. The intensity of catalepsy was tested during 10 sec in all tests and evaluated according to a criteria of 10 sec of total immobility for a score of 2.
The rat was placed in the middle of the vertical wire netting, then on the horizontal bar in an extended position with support by both the forelegs on the bar. The rats were then tested, whether or not they were willing to sit with the left or right forelegs placed first on the 9 and then on the 3 cm block for a duration of 10 sec. The maximum score for all 4 tests is thus a total of 8.

[3] = target: T1, reuptake of dopamine in synaptosomes of rat forebrain (Rattus norvegicus, UniProt P23977); assay: inhibition of reuptake of dopamine (3H-dopamine) in synaptosomes; assay type: biochemical
T1 construct: from tissue; host or cells: whole forebrain of male Wistar rats (crude synaptosomal supernatant)
T1 sequence (P23977 whole entry): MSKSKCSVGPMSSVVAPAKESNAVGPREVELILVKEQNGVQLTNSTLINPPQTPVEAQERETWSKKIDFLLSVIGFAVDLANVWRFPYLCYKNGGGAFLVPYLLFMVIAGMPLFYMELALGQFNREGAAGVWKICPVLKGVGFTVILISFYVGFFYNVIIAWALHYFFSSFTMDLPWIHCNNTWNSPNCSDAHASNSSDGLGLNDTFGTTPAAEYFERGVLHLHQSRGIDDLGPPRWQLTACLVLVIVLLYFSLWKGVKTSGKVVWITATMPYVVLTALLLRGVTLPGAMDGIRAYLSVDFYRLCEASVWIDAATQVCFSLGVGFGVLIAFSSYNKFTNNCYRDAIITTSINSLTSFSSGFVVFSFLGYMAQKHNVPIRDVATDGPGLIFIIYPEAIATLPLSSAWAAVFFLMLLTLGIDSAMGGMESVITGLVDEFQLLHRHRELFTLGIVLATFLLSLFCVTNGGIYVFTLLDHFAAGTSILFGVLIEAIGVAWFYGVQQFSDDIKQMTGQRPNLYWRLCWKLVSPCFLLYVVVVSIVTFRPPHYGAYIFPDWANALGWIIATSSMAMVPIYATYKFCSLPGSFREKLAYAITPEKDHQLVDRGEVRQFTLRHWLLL
Description: Fresh whole forebrain (at 0-4°C) from male Wistar rats (150-200 g) is homogenized in a glass homogenizer with a Teflon pestle in 20 x volumes 0.32M sucrose. The homogenate is centrifuged at 1000 x g (∼ 2900 rpm) for 10 min. The pellet is discarded and the supernatant is used for uptake assays. […] The samples are thoroughly mixed and incubated 10 min at 37°C followed by 2 min at 0°C. After incubation the samples are poured directly onto Whatman GF/C glass fibre filters under suction and immediately washed with 2 x 5 ml ice-cold 0.9% saline (NaCI) buffer. To the filter is added 3 ml of scintillation fluid, and the amount of radioactivity on the filters is determined by conventional liquid scintillation counting.

[4] = system: excitatory locomotor and rearing responses; assay: behavioural excitatory locomotor and rearing responses (side effect profile); assay type: in vivo, rat; details: for Activity: locomotor and rearing, maximum peak effect, rats
Description: Male SPF wistar rats weighing 200-250g were used for the gross behavioural studies. All rats were transferred the day before the experiments to individual cages made of wire netting (floor area 21 x 27 cm, height 16 cm) at a room temperature of 21-23° C. […] The behavioural elements here classified as rearing (i.e. standing up on the hindlegs) and locomotor activities (i.e. forward running activities) were registered, and the maximum peak effects were classified according to the following rating scale: • 0 = non-existent or very infrequent • + = weak and infrequent • ++ = moderate in intensity and frequency • +++ = very strong, continuous and intense
The degree of locomotor activity was also tested and measured quantitatively in photocell activity cages. For the measurement of this locomotor activity 100 g female rats are used.

[5] = system: dopamine releasing properties; assay: dopamine releasing properties

Compound | Activity ([1]; 50 mg/kg i.p.) | minimal effective dose [2] [mg/kg] | pIC50 [3] | Activity ([4]; 50 mg/kg i.p.) | dopamine releasing properties [5] | side effects as measured by excitatory locomotor activity and rearing responses as well as by abnormal stereotyped behaviour ([4]; at every relevant dosing level tested) | Activity ([4]; 10 mg/kg i.p.) | Activity ([1]; 25 mg/kg i.p.) | Activity ([1]; 100 mg/kg p.o.) | Activity ([4]; 100 mg/kg i.p.)
CN1[C@H]2CC[C@@H]1[C@H](c1nc(-c3cccs3)no1)[C@@H](c1ccc(Cl)c(Cl)c1)C2 [(1R,2R,3S)-2-(3-(2-Thienyl)-1,2,4-oxadiazol-5-yl)-3-(3,4-dichlorophenyl)-tropane] | 0 | > 1 | 6.70 | 0 |  |  |  |  |  | 
COC(=O)[C@@H]1[C@@H](c2ccc(F)cc2)C[C@@H]2CC[C@H]1N2C [trans isomer of Win 35,428, (1R,2R,3S)-2-carbomethoxy-3-(4-fluorophenyl)tropane, reference compound] |  |  |  |  | essentially free of dopamine releasing properties | essentially or totally devoid of side effects |  |  |  | 
CN1[C@H]2CC[C@@H]1[C@H](c1nc(-c3ccccn3)no1)[C@@H](c1ccc(Cl)c(Cl)c1)C2 [(1R,2R,3S)-2-(3-(2-Pyridyl)-1,2,4-oxadiazol-5-yl)-3-(3,4-dichlorophenyl)-tropane] | + | > 1 | 6.94 |  |  |  | 0 |  |  | 
CN1[C@H]2CC[C@@H]1[C@H](c1nc(-c3ccncc3)no1)[C@@H](c1ccc(Cl)c(Cl)c1)C2 [(1R,2R,3S)-2-(3-(4-Pyridyl)-1,2,4-oxadiazol-5-yl)-3-(3,4-dichlorophenyl)-tropane] |  | 0.25 | 7.16 |  |  |  | 0 | ++ | + | ++

From patent EP0604352B1, “Aryl-substituted heterocyclic compounds” (N[…]/S, priority 1992, dated 1994)
